# Values joined by “and” are separate entries in the source; they are usually repeats but may differ in a detail not shown here. Equal entries are not always repeated. Results filed as inconclusive are left out.
# Tested on: BDF1 mice, M5076 sarcoma s.c., survival/tumor T/C
# Assay: NCI In Vivo Anticancer Drug Screen. Data for tumor model Sarcoma M5076 (subcutaneous) in B6D2F1 (BDF1) mice
# Description: The antitumor activity of compounds was measured in mice bearing transplantable tumors. Survival or tumor size were measured and the results are expressed as the measurement made in the treated group (T) divided by the measurement made in the vehicle treated control group (C). The tumor model used in this assay is Sarcoma M5076 (subcutaneous) in B6D2F1 (BDF1) mice
smiles,measurement,setting,value
O=CC(NC(=O)N(CCCl)N=O)C(O)C(O)C(O)CO (stereo unspecified),T/C,"endpoint: mean tumor weight, dose: 0.75 mg/kg/injection, schedule: Q02DX011 (ip), vehicle: saline, higher = larger tumour",100 % of control
same,T/C,"endpoint: mean tumor weight, dose: 1.5 mg/kg/injection, schedule: Q02DX011 (ip), vehicle: saline, higher = larger tumour",33 % of control
same,T/C,"endpoint: mean tumor weight, dose: 3.0 mg/kg/injection, schedule: Q02DX011 (ip), vehicle: saline, higher = larger tumour",6 % of control
same,T/C,"endpoint: median survival time, dose: 4.32 mg/kg/injection, schedule: Q04DX003 (ip), vehicle: saline, higher = longer survival",182 % of control
same,T/C,"endpoint: median survival time, dose: 6.17 mg/kg/injection, schedule: Q04DX003 (ip), vehicle: saline, higher = longer survival",152 % of control and 153 % of control
same,T/C,"endpoint: median survival time, dose: 6.86 mg/kg/injection, schedule: Q01DX001 (ip), vehicle: saline, higher = longer survival",109 % of control
same,T/C,"endpoint: median survival time, dose: 8.82 mg/kg/injection, schedule: Q04DX003 (ip), vehicle: saline, higher = longer survival",179 % of control and 181 % of control
same,T/C,"endpoint: median survival time, dose: 9.8 mg/kg/injection, schedule: Q01DX001 (ip), vehicle: saline, higher = longer survival",111 % of control and 113 % of control
same,T/C,"endpoint: median survival time, dose: 12.6 mg/kg/injection, schedule: Q04DX003 (ip), vehicle: saline, higher = longer survival",186 % of control and 188 % of control
same,T/C,"endpoint: median survival time, dose: 18.0 mg/kg/injection, schedule: Q04DX003 (ip), vehicle: saline, higher = longer survival",205 % of control
same,T/C,"endpoint: median survival time, dose: 20.0 mg/kg/injection, schedule: Q01DX001 (ip), vehicle: saline, higher = longer survival",155 % of control and 156 % of control
same,T/C,"endpoint: median tumor weight (est.), dose: 0.75 mg/kg/injection, schedule: Q02DX011 (ip), vehicle: saline, higher = larger tumour",118 % of control
same,T/C,"endpoint: median tumor weight (est.), dose: 1.5 mg/kg/injection, schedule: Q02DX011 (ip), vehicle: saline, higher = larger tumour",5 % of control
same,T/C,"endpoint: median tumor weight (est.), dose: 3.0 mg/kg/injection, schedule: Q02DX011 (ip), vehicle: saline, higher = larger tumour",4 % of control
COc1ccc(/C=C2\SC(=S)N(C3CC3)C2=O)cc1OC,T/C,"endpoint: median survival time, dose: 50.0 mg/kg/injection, schedule: Q01DX009 (ip), vehicle: saline with Tween-80, higher = longer survival",95 % of control
same,T/C,"endpoint: median survival time, dose: 100.0 mg/kg/injection, schedule: Q01DX009 (ip), vehicle: saline with Tween-80, higher = longer survival",93 % of control
same,T/C,"endpoint: median survival time, dose: 200.0 mg/kg/injection, schedule: Q01DX009 (ip), vehicle: saline with Tween-80, higher = longer survival",100 % of control
same,T/C,"endpoint: median tumor weight (est.), dose: 50.0 mg/kg/injection, schedule: Q01DX009 (ip), vehicle: saline with Tween-80, higher = larger tumour",90 % of control
same,T/C,"endpoint: median tumor weight (est.), dose: 100.0 mg/kg/injection, schedule: Q01DX009 (ip), vehicle: saline with Tween-80, higher = larger tumour",88 % of control
same,T/C,"endpoint: median tumor weight (est.), dose: 200.0 mg/kg/injection, schedule: Q01DX009 (ip), vehicle: saline with Tween-80, higher = larger tumour",79 % of control
OC(C1CO1)C(O)C1CO1 (stereo unspecified),T/C,"endpoint: mean tumor weight, dose: 1.0 mg/kg/injection, schedule: Q02DX011 (ip), vehicle: saline, higher = larger tumour",58 % of control
same,T/C,"endpoint: mean tumor weight, dose: 2.0 mg/kg/injection, schedule: Q02DX011 (ip), vehicle: saline, higher = larger tumour",10 % of control and 12 % of control
same,T/C,"endpoint: median survival time, dose: 2.0 mg/kg/injection, schedule: Q01DX009 (ip), vehicle: saline, higher = longer survival",122 % of control
same,T/C,"endpoint: median tumor weight (est.), dose: 1.0 mg/kg/injection, schedule: Q02DX011 (ip), vehicle: saline, higher = larger tumour",67 % of control
same,T/C,"endpoint: median tumor weight (est.), dose: 2.0 mg/kg/injection, schedule: Q01DX009 (ip), vehicle: saline, higher = larger tumour",29 % of control
same,T/C,"endpoint: median tumor weight (est.), dose: 2.0 mg/kg/injection, schedule: Q02DX011 (ip), vehicle: saline, higher = larger tumour",1 % of control and 8 % of control
COC(=N)CCCCC(=N)OC,T/C,"endpoint: median survival time, dose: 50.0 mg/kg/injection, schedule: Q01DX009 (ip), vehicle: saline, higher = longer survival",98 % of control
same,T/C,"endpoint: median survival time, dose: 100.0 mg/kg/injection, schedule: Q01DX009 (ip), vehicle: saline, higher = longer survival",98 % of control
same,T/C,"endpoint: median survival time, dose: 200.0 mg/kg/injection, schedule: Q01DX009 (ip), vehicle: saline, higher = longer survival",98 % of control
same,T/C,"endpoint: median tumor weight (est.), dose: 50.0 mg/kg/injection, schedule: Q01DX009 (ip), vehicle: saline, higher = larger tumour",87 % of control
same,T/C,"endpoint: median tumor weight (est.), dose: 100.0 mg/kg/injection, schedule: Q01DX009 (ip), vehicle: saline, higher = larger tumour",86 % of control

# — PubChem BioAssay AID288 (DTP/NCI, 2004)
